Assay results from EP0545103A1, “Insecticidal, acaricidal and molluscicidal 1-(substituted) thioalkylpyrroles” (priority 1991, dated 1993).

Legend:
Format in all cases: in vivo
[1] = tested on: Empoasca abrupta, adult, western potato leafhopper; assay: Western potato leafhopper contact test, dipped limabean leaf; set-up: key: 0: no effect; 10-25% kill; 26-35% kill; 36-45% kill; 46-55% kill; 56-65% kill; 66-75% kill; 76-85% kill; 86-99% kill; 9: 100% kill; conditions: mortality rating after 2 days
Procedure: (§1) Test solutions are prepared by dissolving the test compound in a 35% acetone in water mixture to give a concentration of 10,000 ppm. Subsequent dilutions are made with water as needed.
Empoasca abrupta, adult, western potato leafhopper
A Sieva limabean leaf about 5 cm long is dipped in the test solution for 3 seconds with agitation and placed in a hood to dry. The treated leaf is placed in a 100 x 10 mm petri dish containing a moist filter paper and about 10 adult leafhoppers are added. After 2 days, mortality counts are made.
(§2) All of the above tests are rated according to the rating scale shown below.

[2] = tested on: Heliothis virescens, egg, tobacco budworm; assay: Tobacco budworm egg test, dipped cotton leaf and eggs; set-up: key: 0: no effect; 10-25% kill; 26-35% kill; 36-45% kill; 46-55% kill; 56-65% kill; 66-75% kill; 76-85% kill; 86-99% kill; 9: 100% kill; conditions: mortality rating after 3 days
Procedure: as §1
Heliothis virescens, egg, tobacco budworm
A young cotton leaf about 6-7cm in length is dipped in an agitated test suspension for about 3 seconds. Eggs are collected on a cheesecloth and the cloth is cut into 10-20mm squares, each containing approximately 50-100 eggs which are 6-30 hours old. The egg-containing cheesecloth square is similarly dipped in a test suspension and placed on a treated cotton leaf. The combination is dried in a hood and then placed in an 8 ounce Dixie® cup #2168-ST (240ml volume, 6cm tall, 9.5cm top diameter, 8.0cm bottom diameter) into which a 5cm length of damp dental wick has been placed. The cup is covered with a clear plastic lid and held for 3 days, after which mortality counts are made.
as §2

[3] = tested on: Aphis fabae, mixed instar, bean aphid; assay: Bean aphid spray test on nasturtium; set-up: key: 0: no effect; 10-25% kill; 26-35% kill; 36-45% kill; 46-55% kill; 56-65% kill; 66-75% kill; 76-85% kill; 86-99% kill; 9: 100% kill; conditions: 100 ppm
Procedure: as §1
Aphis fabae, mixed instar, bean aphid
Pots containing single nasturtium plants (Tropaeolum sp.) about 5 cm tall are infested with about 100-200 aphids one day prior to treatment. Each pot is sprayed with the test solution for 2 revolutions of a 4 rpm turntable in a hood, using a #154 DeVilbiss atomizer. The spray tip is held about 15 cm from the plant and the spray directed so as to give complete coverage of the plants and the aphids. The sprayed pots are set on their sides on white enamel trays and mortality estimates are made after 2 days.
as §2

[4] = tested on: Spodoptera eridania, 3rd instar larvae, southern armyworm; assay: Southern armyworm systemic uptake (stem systemic) test; set-up: key: 0: no effect; 10-25% kill; 26-35% kill; 36-45% kill; 46-55% kill; 56-65% kill; 66-75% kill; 76-85% kill; 86-99% kill; 9: 100% kill; conditions: cut stem in emulsion 3 days
Description: Spodoptera eridania, systemic uptake, 3rd instar larvae, southern armyworm
Subsequent 10-fold dilutions are made with water as needed. Sieva limabean plants, with the primary leaves expanded to a length of 7-8 cm, are cut off at least 3 cm above the soil level to avoid contamination with soil bacteria which will cause decay of the stem during the test. The cut stem is placed in the test emulsion and wrapped with a bit of cotton to hold the stem off the bottom of the bottle and to limit evaporation. The treated stem is thus maintained for 3 days at 27° C to allow the test compound to be taken up into the plant. Following this, one leaf is removed from the plant and placed in a 100 x 10 mm petri dish with 10 southern armyworms as described above. Mortality counts and observations of feeding damage are made 3 and 5 days later.
as §2

[5] = tested on: Diabrotic undecimpunctata howardi, 3rd instar southern corn rootworm; assay: Southern corn rootworm soil test; set-up: key: 0: no effect; 10-25% kill; 26-35% kill; 36-45% kill; 46-55% kill; 56-65% kill; 66-75% kill; 76-85% kill; 86-99% kill; 9: 100% kill; conditions: mortality rating after 6 days
Procedure: Diabrotic undecimpunctata howardi, 3rd instar southern corn rootworm
One cc of fine talc is placed in a 30 mL wide-mouth screw-top glass jar. One mL of the appropriate acetone test solution is pipetted onto the talc so as to provide 1.25 and 0.25 mg of active ingredient per jar. The jars are set under a gentle air flow until the acetone is evaporated. The dried talc is loosened, 1 cc of millet seed is added to serve as food for the insects and 25 mL of moist soil is added to each jar. The jar is capped and the contents thoroughly mixed on a Vortex Mixer. Following this, ten 3rd instar rootworms are added to each jar and the jars are loosely capped to allow air exchange for the larvae. The treatments are held for 6 days when mortality counts are made. Missing larvae are presumed dead, since they decompose rapidly and can not be found. The concentrations used in this test correspond approximately to 50 and 10 kg/ha, respectively.
as §2

[6] = tested on: Spodoptera eridania, 3rd instar larvae, southern armyworm; assay: Southern armyworm 7-day residual test; conditions: R designates Residual: 7-day residual foliage, concentration not given; for ARMYWORM Day 3 R: rating at 3 days; for ARMYWORM Day 5 R: rating at 5 days
Procedure: as §1
Spodoptera eridania, 3rd instar larvae, southern armyworm, 7-day residual
The limabean leaves treated in the above test are maintained under high intensity lamps in the greenhouse for 7 days. These lamps duplicate the effects of a bright sunny day in June in New Jersey and are kept on for 14 hour day length. After 7 days, the foliage is sampled and assayed as in the above-said test.
as §2

[7] = tested on: Tetranychus urticae (OP-resistant strain), 2-spotted spider mite; assay: 2-spotted spider mite test, dipped infested limabean plants; set-up: key: 0: no effect; 10-25% kill; 26-35% kill; 36-45% kill; 46-55% kill; 56-65% kill; 66-75% kill; 76-85% kill; 86-99% kill; 9: 100% kill
Procedure: as §1
Tetranychus urticae (OP-resistant strain), 2-spotted spider mite
Sieva limabean plants with primary leaves expanded to 7-8 cm are selected and cut back to one plant per pot. A small piece is cut from an infested leaf taken from the main colony and placed on each leaf of the test plants. This is done about 2 hours before treatment to allow the mites to move over to the test plant and to lay eggs. The size of the cut, infested leaf is varied to obtain about 100 mites per leaf. At the time of test treatment, the piece of leaf used to transfer the mites is removed and discarded. The newly mite-infested plants are dipped in the test solution for 3 seconds with agitation and set in the hood to dry. After 2 days one leaf is removed and mortality counts are made. After 5 days, another leaf is removed and observations are made of mortality of the eggs and/or newly emerged nymphs.
as §2

[8] = tested on: Spodoptera eridania, 3rd instar larvae, southern armyworm; assay: Southern armyworm 3rd instar test, dipped limabean leaf; set-up: key: 0: no effect; 10-25% kill; 26-35% kill; 36-45% kill; 46-55% kill; 56-65% kill; 66-75% kill; 76-85% kill; 86-99% kill; 9: 100% kill; conditions: for ARMYWORM Day 3: rating at 3 days; for ARMYWORM Day 5: rating at 5 days
Procedure: as §1
Spodoptera eridania, 3rd instar larvae, southern armyworm
A Sieva limabean leaf expanded to 7-8 cm in length is dipped in the test solution with agitation for 3 seconds and allowed to dry in a hood. The leaf is then placed in a 100 x 10 mm petri dish containing a damp filterpaper on the bottom and ten 3rd instar caterpillars. At 3 and 5 days, observations are made of mortality, reduced feeding, or any interference with normal molting.
as §2

[9] = tested on: Heliothis virescens, 3rd instar tobacco budworm; assay: Tobacco budworm 3rd instar test, dipped cotton cotyledons; conditions: mortality rating after 3 days
Procedure: as §1
Heliothis virescens, 3rd instar tobacco budworm
Cotton cotyledons are dipped in the test solution and allowed to dry in a hood. When dry, each is cut into quarters and ten sections are placed individually in 30 mL plastic medicine cups containing a 5-7mm long piece of damp dental wick. One 3rd instar caterpillar is added to each cup and the cup is sealed with MYLAR® film. Treatments are maintained for 3 days before a mortality count and observation of reduction in feeding damage are made.
as §2

| SMILES | TOBACCO BUDWORM Egg ([2]; 1000 ppm) | ARMYWORM Stem Sys [4] | ARMYWORM Day 3 R [6] | ARMYWORM Day 5 R [6] | ARMYWORM Day 3 ([8]; 10 ppm) | ARMYWORM Day 3 ([8]; 100 ppm) | ARMYWORM Day 3 ([8]; 1000 ppm) | SOUTHERN CORN ROOTWORM ([5]; 1 (ppm as headed)) | ARMYWORM Day 5 ([8]; 10 ppm) | ARMYWORM Day 5 ([8]; 100 ppm) | ARMYWORM Day 5 ([8]; 1000 ppm) | other results |
| --- | --- | --- | --- | --- | --- | --- | --- | --- | --- | --- | --- | --- |
| N#Cc1c(Br)c(C(F)(F)F)n(CSC2=NCCCN2)c1-c1ccc(Cl)cc1 [Example 8] | 0 | 9 (100% kill) | 9 (100% kill) | 9 (100% kill) | 0 | 9 (100% kill) | 9 (100% kill) | – | – | – | – | LEAFHOPPER Contact ([1]; 10 ppm): 0; LEAFHOPPER Contact ([1]; 100 ppm): 8 (86-99% kill); TOBACCO BUDWORM Egg ([2]; 100 ppm): 0; APHIDS ([3]; spray, mortality rating after 2 days): 0; SOUTHERN CORN ROOTWORM ([5]; 50 (ppm as headed)): 0; OP-RESISTANT MITES Adult ([7]; 10 ppm, mortality rating after 2 days): 0; OP-RESISTANT MITES Nymph ([7]; 10 ppm, rating after 5 days): 0; OP-RESISTANT MITES Adult ([7]; 100 ppm, mortality rating after 2 days): 9 (100% kill); OP-RESISTANT MITES Nymph ([7]; 100 ppm, rating after 5 days): 8 (86-99% kill); OP-RESISTANT MITES Adult ([7]; 300 ppm, mortality rating after 2 days): 9 (100% kill); OP-RESISTANT MITES Egg ([7]; 300 ppm, rating after 5 days): 0; OP-RESISTANT MITES Nymph ([7]; 300 ppm, rating after 5 days): 0 |
| CCN(CC)C(=S)SCn1c(-c2ccc(Cl)cc2)c(C#N)c(Br)c1C(F)(F)F [Example 26] | 0 | 0 | 9 (100% kill) | 9 (100% kill) | 9 (100% kill) | 9 (100% kill) | 9 (100% kill) | 0 | 9 (100% kill) | 9 (100% kill) | 9 (100% kill) | TOBACCO BUDWORM 3rd Instar ([9]; 10 ppm): 9 (100% kill); TOBACCO BUDWORM 3rd Instar ([9]; 100 ppm): 9 (100% kill); TOBACCO BUDWORM 3rd Instar ([9]; 1000 ppm): 9 (100% kill) |
| CCN=C(NCC)SCn1c(-c2ccc(Cl)cc2)c(C#N)c(Br)c1C(F)(F)F [Example 12] | 0 | 0 | 9 (100% kill) | 9 (100% kill) | 9 (100% kill) | 9 (100% kill) | 9 (100% kill) | 0 | 9 (100% kill) | 9 (100% kill) | 9 (100% kill) | APHIDS ([3]; rating scale 0-9): 0; OP-RESISTANT MITES Adult ([7]; 300 ppm, adult mites, rating scale 0-9): 0; OP-RESISTANT MITES Egg ([7]; 300 ppm, mite eggs, rating scale 0-9): 0; OP-RESISTANT MITES Nymph ([7]; 300 ppm, mite nymphs, rating scale 0-9): 0 |
